Laboratory results published in publication PMC9887116, “SDI-118, a novel procognitive SV2A modulator: First-in-human randomized controlled trial including PET/fMRI assessment of target engagement” (Frontiers in Pharmacology, 2023).

Tests used:
SV2C = conditions: relative to SV2A
Excerpt: (§1) ([Löscher et al., 2016]). […] ([Lynch et al., 2004]; [Matagne et al., 2008]).

SV2B = conditions: relative to SV2A
Excerpt: as §1

[1] = 12-lead ECG QT-interval assessment in first-in-human study; format: in vivo, human (healthy male subjects)
Protocol: (§2) Safety and tolerability were assessed by questioning for adverse events (AEs), vital signs measurements (supine and orthostatic), 12-lead ECGs (always acquired in triplicate except during screening and post-study visit), standard lab safety tests on blood and urine samples, and physical and neurological examinations at regular time-points throughout the study.

[2] = in vivo
Protocol: (§3) The study consisted of three parts. Part A was a double-blind, placebo-controlled (in a 6:2 SDI-118:placebo ratio), single ascending oral dose study performed in 16 subjects equally divided into two cohorts. […] Dose levels of .3, 1, 3, 10, 30, 60, 90 and 120 mg of SDI-118 were set to be administered in an alternating panel design with a minimum washout period of 7 days between subsequent periods. In each period two different sentinel subjects were dosed (in a 1:1 SDI-118:placebo ratio) and followed-up for safety for at least 48 h before the rest of the cohort received the same dose level of the study drug.
as §2

[3] = cardiovascular safety pharmacology study in dogs; format: in vivo
[4] = set-up: species or system rats; conditions: rat, in vivo
[5] = first-in-human single oral dose safety and tolerability (adverse events)
Protocol: as §3, §2

[6] = tested on: animal models of cognitive deficit; assay: animal models of cognitive deficit; format: in vivo; conditions: rodents
Excerpt: as §1

[7] = tested on: screening panel of receptors and enzymes; assay: screening panel of receptors and enzymes; conditions: up to a concentration of 10 µM
Protocol: There were no SAEs or adverse events leading to subject discontinuation from the study. […] The most frequently reported drug related TEAEs were dizziness, hypersomnia, and somnolence, the latter reported only at the highest dose tested (i.e. 80 mg). The onset time of these events was generally short after dose administration, and their duration was usually short with resolution on the same day of dosing or the day after at the most. These mild and transient side effects started at the 10 mg dose and were also observed at higher doses. […] Occupancy at the higher doses would then progressively increase to a maximum of 96% of the predicted maximum at the 80 mg dose. Thus, the observed mild and transient side effects could be consistent with a target related effect seen, in some individuals, at occupancy levels greater than ∼60%. […] Further studies will elucidate this. None of the observed clinically significant changes in vital signs, laboratory parameters, and ECG intervals during the study were considered related to the administration of SDI-118.

SV2A = assay: minimum anticipated biological effect level in experimental rodent models; format: in vivo
Protocol: The study consisted of three parts. […] No stratification was performed.

hERG = hERG (Homo sapiens, UniProt Q12809); assay: preclinical in vitro hERG inhibition; format: biochemical; conditions: preclinical in vitro studies
[8] = target: human recombinant SV2A (hSV2A) (Homo sapiens, UniProt Q7L0J3); assay: in vitro radioligand binding study using human recombinant SV2A; conditions: read-out: half maximal inhibitory concentration (IC50)
Excerpt: as §1

[9] = all subjects (n = 32), all single doses pooled
[10] = all subjects (n = 32), only at 80 mg

Chain of hERG (Q12809 whole entry): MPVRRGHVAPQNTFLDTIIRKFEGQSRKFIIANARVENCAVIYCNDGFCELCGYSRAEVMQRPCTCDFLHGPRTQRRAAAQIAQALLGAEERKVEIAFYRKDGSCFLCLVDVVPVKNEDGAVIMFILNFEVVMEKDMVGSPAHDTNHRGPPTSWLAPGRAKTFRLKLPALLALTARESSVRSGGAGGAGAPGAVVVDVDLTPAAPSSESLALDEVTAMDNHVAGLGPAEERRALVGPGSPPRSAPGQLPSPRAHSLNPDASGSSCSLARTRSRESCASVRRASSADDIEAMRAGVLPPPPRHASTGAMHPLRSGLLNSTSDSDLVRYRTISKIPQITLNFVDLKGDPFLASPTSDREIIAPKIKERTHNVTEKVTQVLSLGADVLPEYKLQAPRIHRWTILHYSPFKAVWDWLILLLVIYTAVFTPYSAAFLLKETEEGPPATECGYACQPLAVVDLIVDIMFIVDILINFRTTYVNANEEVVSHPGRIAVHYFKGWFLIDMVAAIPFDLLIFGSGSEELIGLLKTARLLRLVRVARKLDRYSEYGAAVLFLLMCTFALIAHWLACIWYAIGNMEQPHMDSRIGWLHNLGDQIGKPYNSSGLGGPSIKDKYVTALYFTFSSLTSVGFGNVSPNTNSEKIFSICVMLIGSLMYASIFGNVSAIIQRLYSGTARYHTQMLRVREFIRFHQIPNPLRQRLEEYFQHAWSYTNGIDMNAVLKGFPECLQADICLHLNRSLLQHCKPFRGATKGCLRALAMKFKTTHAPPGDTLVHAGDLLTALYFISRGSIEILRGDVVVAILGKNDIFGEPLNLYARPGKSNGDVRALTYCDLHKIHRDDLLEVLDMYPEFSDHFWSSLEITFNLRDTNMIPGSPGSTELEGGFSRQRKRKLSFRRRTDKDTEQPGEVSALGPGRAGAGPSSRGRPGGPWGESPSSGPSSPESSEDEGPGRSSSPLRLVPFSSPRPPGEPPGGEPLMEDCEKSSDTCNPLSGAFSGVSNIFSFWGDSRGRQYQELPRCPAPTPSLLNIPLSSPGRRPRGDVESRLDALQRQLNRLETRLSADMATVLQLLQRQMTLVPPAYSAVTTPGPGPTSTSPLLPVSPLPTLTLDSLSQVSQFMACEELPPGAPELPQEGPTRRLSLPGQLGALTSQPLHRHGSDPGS
Chain of human recombinant SV2A (hSV2A) (Q7L0J3 whole entry): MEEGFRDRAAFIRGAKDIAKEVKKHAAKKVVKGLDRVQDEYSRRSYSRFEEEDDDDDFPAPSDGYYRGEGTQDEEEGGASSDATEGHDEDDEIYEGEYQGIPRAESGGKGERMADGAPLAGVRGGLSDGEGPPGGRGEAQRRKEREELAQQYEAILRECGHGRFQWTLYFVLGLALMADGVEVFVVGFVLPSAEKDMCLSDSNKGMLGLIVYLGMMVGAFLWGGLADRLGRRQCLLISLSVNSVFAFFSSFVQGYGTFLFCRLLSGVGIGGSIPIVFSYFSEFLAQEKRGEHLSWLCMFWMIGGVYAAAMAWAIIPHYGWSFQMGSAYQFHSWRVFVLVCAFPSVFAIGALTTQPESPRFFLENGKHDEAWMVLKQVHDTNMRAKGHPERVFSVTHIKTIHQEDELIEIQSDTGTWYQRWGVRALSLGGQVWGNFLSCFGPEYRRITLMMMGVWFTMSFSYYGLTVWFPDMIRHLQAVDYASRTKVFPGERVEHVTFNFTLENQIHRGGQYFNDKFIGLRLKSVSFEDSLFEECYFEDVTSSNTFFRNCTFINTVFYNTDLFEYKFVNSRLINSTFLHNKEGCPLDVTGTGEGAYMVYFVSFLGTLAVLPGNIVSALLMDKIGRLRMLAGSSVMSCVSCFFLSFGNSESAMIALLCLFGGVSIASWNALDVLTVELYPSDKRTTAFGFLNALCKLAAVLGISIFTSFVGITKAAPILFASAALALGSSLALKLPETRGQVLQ

In the case of `O=C1C[C@H](c2cc(F)c(F)c(F)c2)CN1Cn1ncnc1Cl` [SDI-118], the “selectivity over SV2C” value (SV2C) is reported as “over 100 fold”, the “selectivity over SV2B” value (SV2B) is reported as “over 1000 fold” and the “largest observed mean increase from baseline QTcF” value ([1]; 12 h post-dose at 60 mg) is reported as “+6.1 ms”. The single QT-interval value, any subject ([1]; no subject above this value) was ≤ 500 ms, the single corrected QT-interval Fridericia (QTcF) value, any subject ([1]; no subject above this value) was ≤ 450 ms and the QT-interval prolongation ([1]; single oral doses 0.3-80 mg) was “no QT-interval prolongations were observed”. The “onset time of dizziness, hypersomnia, somnolence after dose administration” value [2] was “up to 4 h”, the “findings in cardiovascular safety pharmacology study” value [3] was “absence of any adverse findings” and the “no observed adverse effect level (NOAEL)” value [4] was 150 mg/kg/day. The “dizziness, drug related TEAE, number of events” value [5, 9] was 12 events, the “dizziness, drug related TEAE, number of subjects” value [5, 9] was “nine” and the “hypersomnia, drug related TEAE, number of events” value [5, 9] was 6 events. The “hypersomnia, drug related TEAE, number of subjects” value [5, 9] was “five”, the “somnolence, drug related TEAE, number of events” value [5, 10] was 2 events and the “somnolence, drug related TEAE, number of subjects” value [5, 10] was “two”. For the same compound, the “All drug related TEAEs: N (%) (number of subjects)” value (“All drug related TEAEs: N (%)” for short) ([5]; single oral dose 1 mg (N=8)) was 1 (12.5) N (%), the “All drug related TEAEs: No. (number of observations)” value ([5]; single oral dose 1 mg (N=8)) was 1 and the “Headache, drug related TEAE: N (%) (number of subjects)” value ([5]; single oral dose 1 mg (N=8)) was 1 (12.5) N (%). For the same compound, the “Headache, drug related TEAE: No. (number of observations)” value ([5]; single oral dose 1 mg (N=8)) was 1, the “Nervous System Disorders, drug related TEAEs: N (%) (number of subjects)” value ([5]; single oral dose 1 mg (N=8)) was 1 (12.5) N (%) and the “Nervous System Disorders, drug related TEAEs: No. (number of observations)” value ([5]; single oral dose 1 mg (N=8)) was 1. For the same compound, the “All drug related TEAEs: N (%)” value ([5]; single oral dose 3 mg (N=6)) was 1 (16.7) N (%), the “All drug related TEAEs: No. (number of observations)” value ([5]; single oral dose 3 mg (N=6)) was 1 and the “Cardiac Disorders, drug related TEAEs: N (%) (number of subjects)” value ([5]; single oral dose 3 mg (N=6)) was 1 (16.7) N (%). The “Cardiac Disorders, drug related TEAEs: No. (number of observations)” value ([5]; single oral dose 3 mg (N=6)) was 1, the “Postural Dizziness, drug related TEAE: N (%) (number of subjects)” value ([5]; single oral dose 3 mg (N=6)) was 1 (16.7) N (%) and the “Postural Dizziness, drug related TEAE: No. (number of observations)” value ([5]; single oral dose 3 mg (N=6)) was 1. The “All drug related TEAEs: N (%)” value ([5]; single oral dose 10 mg (N=16)) was 4 (66.7) N (%), the “All drug related TEAEs: No. (number of observations)” value ([5]; single oral dose 10 mg (N=16)) was 5 and the “Blurred vision, drug related TEAE: N (%) (number of subjects)” value ([5]; single oral dose 10 mg (N=16)) was 1 (16.7) N (%). The “Blurred vision, drug related TEAE: No. (number of observations)” value ([5]; single oral dose 10 mg (N=16)) was 1, the “Dizziness, drug related TEAE: N (%) (number of subjects)” value ([5]; single oral dose 10 mg (N=16)) was 1 (16.7) N (%) and the “Dizziness, drug related TEAE: No. (number of observations)” value ([5]; single oral dose 10 mg (N=16)) was 1. The “Eye Disorders, drug related TEAEs: N (%) (number of subjects)” value ([5]; single oral dose 10 mg (N=16)) was 1 (16.7) N (%), the “Eye Disorders, drug related TEAEs: No. (number of observations)” value ([5]; single oral dose 10 mg (N=16)) was 1 and the “Fatigue, drug related TEAE: N (%) (number of subjects)” value ([5]; single oral dose 10 mg (N=16)) was 1 (16.7) N (%). The “Fatigue, drug related TEAE: No. (number of observations)” value ([5]; single oral dose 10 mg (N=16)) was 1, the “General Disorders, drug related TEAEs: N (%) (number of subjects)” value ([5]; single oral dose 10 mg (N=16)) was 1 (16.7) N (%) and the “General Disorders, drug related TEAEs: No. (number of observations)” value ([5]; single oral dose 10 mg (N=16)) was 1. For the same compound, the “Hypersomnia, drug related TEAE: N (%) (number of subjects)” value (“Hypersomnia, drug related TEAE: N (%)” below) ([5]; single oral dose 10 mg (N=16)) was 2 (33.3) N (%), the “Hypersomnia, drug related TEAE: No. (number of observations)” value (“Hypersomnia … No. (number of observations)” for short) ([5]; single oral dose 10 mg (N=16)) was 2 and the “Nervous System Disorders, drug related TEAEs: N (%) (number of subjects)” value ([5]; single oral dose 10 mg (N=16)) was 3 (50.0) N (%). For the same compound, the “Nervous System Disorders, drug related TEAEs: No. (number of observations)” value ([5]; single oral dose 10 mg (N=16)) was 3, the “All drug related TEAEs: N (%)” value ([5]; single oral dose 20 mg (N=8)) was 4 (50.0) N (%) and the “All drug related TEAEs: No. (number of observations)” value ([5]; single oral dose 20 mg (N=8)) was 4. For the same compound, the “Dizziness, drug related TEAE: N (%) (number of subjects)” value ([5]; single oral dose 20 mg (N=8)) was 4 (50.0) N (%), the “Dizziness, drug related TEAE: No. (number of observations)” value ([5]; single oral dose 20 mg (N=8)) was 4 and the “Nervous System Disorders, drug related TEAEs: N (%) (number of subjects)” value ([5]; single oral dose 20 mg (N=8)) was 4 (50.0) N (%). For the same compound, the “Nervous System Disorders, drug related TEAEs: No. (number of observations)” value ([5]; single oral dose 20 mg (N=8)) was 4, the “All drug related TEAEs: N (%)” value ([5]; single oral dose 40 mg (N=6)) was 3 (50.0) N (%) and the “All drug related TEAEs: No. (number of observations)” value ([5]; single oral dose 40 mg (N=6)) was 4. The “Dizziness, drug related TEAE: N (%) (number of subjects)” value ([5]; single oral dose 40 mg (N=6)) was 3 (50.0) N (%), the “Dizziness, drug related TEAE: No. (number of observations)” value ([5]; single oral dose 40 mg (N=6)) was 3 and the “Hypersomnia, drug related TEAE: N (%)” value ([5]; single oral dose 40 mg (N=6)) was 1 (16.7) N (%). For the same compound, the “Hypersomnia … No. (number of observations)” value ([5]; single oral dose 40 mg (N=6)) was 1, the “Nervous System Disorders, drug related TEAEs: N (%) (number of subjects)” value ([5]; single oral dose 40 mg (N=6)) was 3 (50.0) N (%) and the “Nervous System Disorders, drug related TEAEs: No. (number of observations)” value ([5]; single oral dose 40 mg (N=6)) was 4. For the same compound, the “All drug related TEAEs: N (%)” value ([5]; single oral dose 60 mg (N=6)) was 3 (50.0) N (%), the “All drug related TEAEs: No. (number of observations)” value ([5]; single oral dose 60 mg (N=6)) was 4 and the “Cardiac Disorders, drug related TEAEs: N (%) (number of subjects)” value ([5]; single oral dose 60 mg (N=6)) was 1 (16.7) N (%). For the same compound, the “Cardiac Disorders, drug related TEAEs: No. (number of observations)” value ([5]; single oral dose 60 mg (N=6)) was 1, the “Dizziness, drug related TEAE: N (%) (number of subjects)” value ([5]; single oral dose 60 mg (N=6)) was 2 (33.3) N (%) and the “Dizziness, drug related TEAE: No. (number of observations)” value ([5]; single oral dose 60 mg (N=6)) was 2. The “Hypersomnia, drug related TEAE: N (%)” value ([5]; single oral dose 60 mg (N=6)) was 1 (16.7) N (%), the “Hypersomnia … No. (number of observations)” value ([5]; single oral dose 60 mg (N=6)) was 1 and the “Nervous System Disorders, drug related TEAEs: N (%) (number of subjects)” value ([5]; single oral dose 60 mg (N=6)) was 2 (33.3) N (%). The “Nervous System Disorders, drug related TEAEs: No. (number of observations)” value ([5]; single oral dose 60 mg (N=6)) was 3, the “Postural Dizziness, drug related TEAE: N (%) (number of subjects)” value ([5]; single oral dose 60 mg (N=6)) was 1 (16.7) N (%) and the “Postural Dizziness, drug related TEAE: No. (number of observations)” value ([5]; single oral dose 60 mg (N=6)) was 1. The “All drug related TEAEs: N (%)” value ([5]; single oral dose 80 mg (N=6)) was 4 (66.7) N (%), the “All drug related TEAEs: No. (number of observations)” value ([5]; single oral dose 80 mg (N=6)) was 8 and the “Dizziness, drug related TEAE: N (%) (number of subjects)” value ([5]; single oral dose 80 mg (N=6)) was 2 (33.3) N (%). For the same compound, the “Dizziness, drug related TEAE: No. (number of observations)” value ([5]; single oral dose 80 mg (N=6)) was 2, the “Headache, drug related TEAE: N (%) (number of subjects)” value ([5]; single oral dose 80 mg (N=6)) was 1 (16.7) N (%) and the “Headache, drug related TEAE: No. (number of observations)” value ([5]; single oral dose 80 mg (N=6)) was 1. The “Hypersomnia, drug related TEAE: N (%)” value ([5]; single oral dose 80 mg (N=6)) was 2 (33.3) N (%), the “Hypersomnia … No. (number of observations)” value ([5]; single oral dose 80 mg (N=6)) was 2 and the “Irritability, drug related TEAE: N (%) (number of subjects)” value ([5]; single oral dose 80 mg (N=6)) was 1 (16.7) N (%). The “Irritability, drug related TEAE: No. (number of observations)” value ([5]; single oral dose 80 mg (N=6)) was 1, the “Nervous System Disorders, drug related TEAEs: N (%) (number of subjects)” value ([5]; single oral dose 80 mg (N=6)) was 4 (66.7) N (%) and the “Nervous System Disorders, drug related TEAEs: No. (number of observations)” value ([5]; single oral dose 80 mg (N=6)) was 7. For the same compound, the “Psychiatric Disorders, drug related TEAEs: N (%) (number of subjects)” value ([5]; single oral dose 80 mg (N=6)) was 1 (16.7) N (%), the “Psychiatric Disorders, drug related TEAEs: No. (number of observations)” value ([5]; single oral dose 80 mg (N=6)) was 1 and the “Somnolence, drug related TEAE: N (%) (number of subjects)” value ([5]; single oral dose 80 mg (N=6)) was 2 (33.3) N (%). The “Somnolence, drug related TEAE: No. (number of observations)” value ([5]; single oral dose 80 mg (N=6)) was 2, the “intensity of drug related TEAEs” value ([5]; single oral doses 0.3-80 mg) was “mild in intensity” and the neurological examination ([5]; single oral doses 0.3-80 mg) was “No abnormalities were found”. For the same compound, the “serious adverse events (SAEs)” value ([5]; single oral doses 0.3-80 mg) was “no serious adverse events”, the “safety and tolerability of single oral dose” value ([5]; up to 80 mg, healthy male subjects) was “safe and well tolerated” and the “cognitive effects in animal models of cognitive deficit” value [6] was “showed cognitive enhancing effects”. The “activity in screening panel of receptors and enzymes” value [7] was “no activity was observed”, the “SV2A occupancy at which MABEL appeared to start” value (SV2A) was “approximately 10%” and the “potential to inhibit hERG” value (hERG) was “low potential to inhibit hERG”. For the same compound, the IC50 [8] was 0.013 µM.
